These compounds were tested against T1, CCR(9) (Homo sapiens, UniProt P51686) (assay: calcium mobilization assay (FLIPR, MOLT-4 cells, hTECK)). Conditions: read-out: CCR(9) Ca^2+.
T1 construct: CCR(9)-expressing cells such as T cell line MOLT-4 cells; host or cells: MOLT-4 T cell line
T1 sequence (P51686 1-369): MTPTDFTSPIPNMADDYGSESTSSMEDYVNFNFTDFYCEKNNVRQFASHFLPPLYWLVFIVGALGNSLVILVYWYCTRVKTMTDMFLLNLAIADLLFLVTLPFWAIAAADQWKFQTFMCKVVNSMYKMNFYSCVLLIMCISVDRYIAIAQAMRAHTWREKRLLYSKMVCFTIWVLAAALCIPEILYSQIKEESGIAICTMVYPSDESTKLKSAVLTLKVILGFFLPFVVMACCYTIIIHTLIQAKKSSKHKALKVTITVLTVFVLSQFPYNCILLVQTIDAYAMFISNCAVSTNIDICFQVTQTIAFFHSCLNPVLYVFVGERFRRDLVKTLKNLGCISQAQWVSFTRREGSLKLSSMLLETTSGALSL
Assay type: cell-based
Procedure: In calcium signaling assays used to determine the ability of a compound to interfere with binding between a chemokine receptor and a known chemokine ligand, chemokine receptor-expressing cells (CCR(9)-expressing cells such as T cell line MOLT-4 cells) are first incubated with a compound of interest, such as a potential chemokine antagonist, at increasing concentrations. The cell number can be from 10^5 to 5×10^6 cells per well in a 96-well microtiter plate. The concentration of the compound being tested may range from 0 to 100 μM. After a period of incubation (which can range from 5 to 60 minutes), the treated cells are placed in a Fluorometric Imaging Plate Reader (FLIPR®) (available from Molecular Devices Corp., Sunnyvale, Calif.) according to the manufacturer's instruction. The FLIPR® system is well known to those skilled in the art as a standard method of performing assays. The cells are then stimulated with an appropriate amount of the chemokine ligand (TECK for CCR(9)) at 5-100 nM final concentration, and the signal of intracellular calcium increase (also called calcium flux) is recorded. The efficacy of a compound as an inhibitor of binding between the chemokine and the ligand can be calculated as an IC50 (the concentration needed to cause 50% inhibition in signaling) or IC90 (at 90% inhibition).
MOLT-4 cells were obtained from the American Type Culture Collection (Manassas, Va.) and cultured in RPMI tissue culture medium supplemented with 10% fetal calf serum (FCS) in a humidified 5% CO2 incubator at 37° C. Recombinant human chemokine proteins TECK was obtained from R&D Systems (Minneapolis, Minn.). ChemoTX® chemotaxis microchambers were purchased from Neuro Probe (Gaithersburg, Md.). CyQUANT® cell proliferation kits were purchased from Molecular Probes (Eugene, Oreg.). Calcium indicator dye Fluo-4 AM was purchased from Molecular Devices (Mountain View, Calif.).
A cytoplasmic calcium mobilization assay was used to determine the efficacy of potential receptor antagonists at blocking the signals mediated through chemokine receptors, such as CCR(9). This assay was routinely performed using the Fluorescent Imaging Plate Reader (FLIPR, Molecular Devices). MOLT-4 cells were labeled with the fluorescent-indicator dye Fluo-4 (Molecular Devices) according to the manufacturer's directions. After labeling, the cells were collected by centrifugation (400×g for 5 min at room temperature) and resuspended in HBSS to a cell density of 2.5×10^6 cells/mL. Test compounds were prepared in 100% DMSO at 100× the final concentration; generally, a range of concentrations of each compound were tested, with final concentrations from 0.1 nM to 10,000 nM. Labeled cells (300 μL) were mixed with compound or an equal volume of DMSO (3 μL) in a 96-well plate; after thorough mixing, 50 μL of this cell/compound mixture was added to each of four wells of a 384-well FLIPR plate. The chemokine agonist (i.e., hTECK), prepared in HBSS at a 5× concentration of the previously determined EC^50 concentration, was added to each well and resulting changes in the fluorescent intensity, indicative of chemokine receptor-mediated signaling, were recorded on the FLIPR.

Going from CC(C)(C)c1ccc(S(=O)(=O)Nc2cc(C(F)(F)F)nn2-c2cccc3cccnc23)cc1 to CC(C)(C)c1ccc(S(=O)(=O)Nc2cc(C(C)(F)F)nn2-c2cccc3ncccc23)cc1, the IC50 falls from over 1000 nM to under 100 nM. The second is the more potent here.

First: CC(C)(C)c1ccc(S(=O)(=O)Nc2cc(C(F)(F)F)nn2-c2ncnc3ccccc23)cc1
Second: CC(C)(C)c1ccc(S(=O)(=O)Nc2cc(C(N)=O)nn2-c2cccc3ncccc23)cc1
The IC50 of the first is lower: under 100 nM for the first, 100 to 1000 nM for the second. The first is the more potent here.

First: Cc1cnc2cccc(-n3nc(C)cc3NS(=O)(=O)c3ccc(C(C)(C)C)cc3)c2c1
Second: Cc1cnc2c(Cl)ccc(-n3nc(C)cc3NS(=O)(=O)c3ccc(C(C)(C)C)cc3)c2c1
The IC50 of the first is higher: 100 to 1000 nM for the first, under 100 nM for the second.

Cc1cc(NS(=O)(=O)c2ccc(C(C)(C)C)cc2)n(-c2ccc3ncccc3c2)n1 and Cc1cc(NS(=O)(=O)c2ccc(C(C)(C)C)cc2)n(-c2ccc3ccccc3c2)n1 cannot be ordered by IC50: under 100 nM for the first, under 100 nM for the second.

Cc1cc(NS(=O)(=O)c2ccc(C(C)(C)C)cc2)n(-c2ccnc3ccc(F)cc23)n1 and Cc1nn(-c2cccc3ncccc23)c(NS(=O)(=O)c2ccc(C(C)(C)C)cc2)c1F cannot be ordered by IC50: under 100 nM for the first, under 100 nM for the second.

First: Cc1cc(NS(=O)(=O)c2ccc(C(C)(C)C)cc2)n(Cc2cccc3ncccc23)n1
Second: Cc1cc(NS(=O)(=O)c2ccc(C(C)(C)C)cc2)n(Cc2cccc3cnccc23)n1
The IC50 of the first is higher: 100 to 1000 nM for the first, under 100 nM for the second.

Cc1cc(NS(=O)(=O)c2ccc(C(C)(C)C)cc2)n(-c2cc3ccccc3cn2)n1 and CC(C)(C)c1ccc(S(=O)(=O)Nc2cc(CC#N)nn2-c2cccc3ncccc23)cc1 cannot be ordered by IC50: under 100 nM for the first, under 100 nM for the second.

CC(C)Oc1ccc(S(=O)(=O)Nc2cc(C(C)(F)F)nn2-c2cccc3ncccc23)cc1 and CC(C)c1ccc(S(=O)(=O)Nc2cc(C(C)(F)F)nn2-c2cccc3ncccc23)cc1 cannot be ordered by IC50: under 100 nM for the first, under 100 nM for the second.

Cc1cc(NS(=O)(=O)c2ccc3c(c2)CCC(C)(C)O3)n(-c2cccc3ncccc23)n1 was tested, and the IC50 was under 100 nM.

From patent publication US20180009797A1, “AZA-ARYL 1H-PYRAZOL-1-YL BENZENE SULFONAMIDES” (ChemoCentryx, Inc., priority 2016, published 2018)
